Test results: ChEMBL document CHEMBL1201861, “Genomics of Drug Sensitity in Cancer screening data, Wellcome Trust Sanger Institute”

Tests used:
Test in all cases: cells
HCC1954 = assay type: functional, cell-based, Homo sapiens; details: Homo sapiens, HCC1954;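 note: growth inhibition of human HCC1954 cells, read out with a cell viability assay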
Description: SANGER: Inhibition of human HCC1954 cell growth in a cell viability assay.

HGC-27 = assay type: functional, cell-based, Homo sapiens; details: Homo sapiens, HGC-27;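 note: growth inhibition of human HGC-27 cells, read out in a cell viability assay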
Description: SANGER: Inhibition of human HGC-27 cell growth in a cell viability assay.

HN = assay type: functional, cell-based, Homo sapiens; details: Homo sapiens, HN
Description: SANGER: Inhibition of human HN cell growth in a cell viability assay.

HT-3 = assay type: functional, cell-based, Homo sapiens; details: Homo sapiens, HT-3;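 note: growth inhibition measured with a cell viability readout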
Description: SANGER: Inhibition of human HT-3 cell growth in a cell viability assay.

HuCCT-1 = assay type: functional, cell-based, Homo sapiens, HuCCT1; details: Homo sapiens, HuCCT-1;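 note: growth inhibition of HuCCT-1 cells, read out by a cell viability assay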
Description: SANGER: Inhibition of human HuCCT1 cell growth in a cell viability assay.

HuP-T3 = assay type: functional, cell-based, Homo sapiens; details: Homo sapiens, HuP-T3;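 note: HuP-T3 cell growth inhibition, read out with a cell viability assay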
Description: SANGER: Inhibition of human HuP-T3 cell growth in a cell viability assay.

KYSE-140 = assay type: functional, cell-based, Homo sapiens; details: Homo sapiens, KYSE-140;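 note: cell viability assay measuring growth inhibition in human KYSE-140 cells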
Description: SANGER: Inhibition of human KYSE-140 cell growth in a cell viability assay.

KYSE-510 = assay type: functional, cell-based, Homo sapiens; details: Homo sapiens, KYSE-510;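 note: cell viability readout used to measure how strongly growth of the cell line is suppressed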
Description: SANGER: Inhibition of human KYSE-510 cell growth in a cell viability assay.

LoVo = assay type: functional, cell-based, Homo sapiens; details: Homo sapiens, LoVo;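 note: growth inhibition of human LoVo cells, read out with a cell viability assay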
Description: SANGER: Inhibition of human LoVo cell growth in a cell viability assay.

NB14 = assay type: functional, cell-based, Homo sapiens; details: Homo sapiens, NB14;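 note: growth inhibition of NB14 cells measured with a cell viability assay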
Description: SANGER: Inhibition of human NB14 cell growth in a cell viability assay.

NCI-H1651 = assay type: functional, cell-based, Homo sapiens; details: Homo sapiens, NCI-H1651;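 note: Read-out is a cell viability assay, with IC50 expressing inhibition of NCI-H1651 cell growth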
Description: SANGER: Inhibition of human NCI-H1651 cell growth in a cell viability assay.

NCI-H292 = assay type: functional, cell-based, Homo sapiens; details: Homo sapiens, NCI-H292;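 note: growth inhibition of NCI-H292 cells, read out with a cell viability assay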
Description: SANGER: Inhibition of human NCI-H292 cell growth in a cell viability assay.

NCI-H810 = assay type: functional, cell-based, Homo sapiens; details: Homo sapiens, NCI-H810;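 note: IC50 reflects inhibition of cancer cell line growth, read out with a cell viability assay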
Description: SANGER: Inhibition of human NCI-H810 cell growth in a cell viability assay.

OE19 = assay type: functional, cell-based, Homo sapiens; details: Homo sapiens, OE19;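 note: growth inhibition of OE19 cells, measured through a cell viability read-out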
Description: SANGER: Inhibition of human OE19 cell growth in a cell viability assay.

OE33 = assay type: functional, cell-based, Homo sapiens; details: Homo sapiens, OE33;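 note: growth inhibition of human OE33 cells, measured by a cell viability assay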
Description: SANGER: Inhibition of human OE33 cell growth in a cell viability assay.

OVCAR-8 = assay type: functional, cell-based, Homo sapiens; details: Homo sapiens, OVCAR-8;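 note: growth inhibition of human OVCAR-8 cells, read out by a cell viability assay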
Description: SANGER: Inhibition of human OVCAR-8 cell growth in a cell viability assay.

PC-3 = assay type: functional, cell-based, Homo sapiens; details: Homo sapiens, PC-3
Description: SANGER: Inhibition of human PC-3 cell growth in a cell viability assay.

RPMI-7951 = assay type: functional, cell-based, Homo sapiens; details: Homo sapiens, RPMI-7951
Description: SANGER: Inhibition of human RPMI-7951 cell growth in a cell viability assay.

SAS = assay type: functional, cell-based, Homo sapiens; details: Homo sapiens, SAS;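 note: growth inhibition of SAS cells, read out with a cell viability assay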
Description: SANGER: Inhibition of human SAS cell growth in a cell viability assay.

SW1573 = assay type: functional, cell-based, Homo sapiens; details: Homo sapiens, SW1573;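 note: growth inhibition of SW1573 cells, read out with a cell viability assay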
Description: SANGER: Inhibition of human SW1573 cell growth in a cell viability assay.

SW-620 = assay type: functional, cell-based, Homo sapiens; details: Homo sapiens, SW-620;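 note: growth inhibition of human SW-620 cells, measured by a cell viability assay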
Description: SANGER: Inhibition of human SW620 cell growth in a cell viability assay.

SW837 = assay type: functional, cell-based, Homo sapiens; details: Homo sapiens, SW837;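 note: growth inhibition of SW837 cells, determined with a cell viability assay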
Description: SANGER: Inhibition of human SW837 cell growth in a cell viability assay.

CWR22R = assay type: functional, cell-based, Homo sapiens; details: Homo sapiens, 22Rv1;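 note: growth inhibition of 22Rv1 cells, read out with a cell viability assay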
Description: SANGER: Inhibition of human 22RV1 cell growth in a cell viability assay.

769-P = assay type: functional, cell-based, Homo sapiens; details: Homo sapiens, 769-P
Description: SANGER: Inhibition of human 769-P cell growth in a cell viability assay.

A-427 = assay type: functional, cell-based, Homo sapiens; details: Homo sapiens, A-427;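 note: growth inhibition of human A-427 cells, read out by a cell viability assay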
Description: SANGER: Inhibition of human A427 cell growth in a cell viability assay.

BXPC-3 = assay type: functional, cell-based, Homo sapiens; details: Homo sapiens, BXPC-3;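 note: growth inhibition of human BxPC-3 cells, read out by a cell viability assay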
Description: SANGER: Inhibition of human BxPC-3 cell growth in a cell viability assay.

CAL-33 = assay type: functional, cell-based, Homo sapiens; details: Homo sapiens, CAL-33;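 note: growth inhibition of CAL-33 cells, read out with a cell viability assay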
Description: SANGER: Inhibition of human CAL-33 cell growth in a cell viability assay.

CFPAC-1 = assay type: functional, cell-based, Homo sapiens; details: Homo sapiens, CFPAC-1;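 note: cell viability readout used to gauge suppression of CFPAC-1 cell proliferation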
Description: SANGER: Inhibition of human CFPAC-1 cell growth in a cell viability assay.

COLO-678 = assay type: functional, cell-based, Homo sapiens; details: Homo sapiens, COLO-678
Description: SANGER: Inhibition of human COLO-678 cell growth in a cell viability assay.

COLO-679 = assay type: functional, cell-based, Homo sapiens; details: Homo sapiens, COLO-679
Description: SANGER: Inhibition of human COLO-679 cell growth in a cell viability assay.

| Structure (SMILES) | IC50 (HCC1954) [µM] | IC50 (HGC-27) [µM] | IC50 (HN) [µM] | IC50 (HT-3) [µM] | IC50 (HuCCT-1) [µM] | IC50 (HuP-T3) [µM] | IC50 (KYSE-140) [µM] | IC50 (KYSE-510) [µM] | IC50 (LoVo) [µM] | IC50 (NB14) [µM] | IC50 (NCI-H1651) [µM] | IC50 (NCI-H292) [µM] | IC50 (NCI-H810) [µM] | IC50 (OE19) [µM] | IC50 (OE33) [µM] | IC50 (OVCAR-8) [µM] | IC50 (PC-3) [µM] | IC50 (RPMI-7951) [µM] | IC50 (SAS) [µM] | IC50 (SW1573) [µM] | other results |
| --- | --- | --- | --- | --- | --- | --- | --- | --- | --- | --- | --- | --- | --- | --- | --- | --- | --- | --- | --- | --- | --- |
| COc1cc2c(Nc3ccc(NC(=O)c4ccccc4)cc3)ncnc2cc1OCCCN1CCOCC1 | > 4 | > 4 | 1.93 | > 4 | > 4 | > 4 | > 4 | 3.64 | > 4 | 1.56 | 3.74 | 1.7 | > 4 | > 4 | > 4 | > 4 | > 4 | > 4 | > 4 | > 4 | IC50 (SW-620): > 4 µM; IC50 (SW837): > 4 µM; IC50 (CWR22R): > 4 µM; IC50 (769-P): > 4 µM; IC50 (A-427): > 4 µM; IC50 (BXPC-3): > 4 µM; IC50 (CAL-33): 1.73 µM; IC50 (CFPAC-1): > 4 µM; IC50 (COLO-678): > 4 µM; IC50 (COLO-679): > 4 µM |
| CO[C@H]1C[C@@H]2CC[C@@H](C)[C@@](O)(O2)C(=O)C(=O)N2CCCC[C@H]2C(=O)O[C@H]([C@H](C)C[C@@H]2CC[C@@H](OC(=O)C(C)(CO)CO)[C@H](OC)C2)CC(=O)[C@H](C)/C=C(\C)[C@@H](O)[C@@H](OC)C(=O)[C@H](C)C[C@H](C)/C=C/C=C/C=C/1C [TEMSIROLIMUS] | > 0.2 | 0.0096 | > 0.2 | > 0.2 | > 0.2 | > 0.2 | 0.156 | > 0.2 | > 0.2 | 0.1 | > 0.2 | 0.00984 | > 0.2 | > 0.2 | > 0.2 | 0.136 | 0.00914 | 0.039 | > 0.2 | > 0.2 | IC50 (SW-620): 0.106 µM; IC50 (SW837): > 0.2 µM; IC50 (CWR22R): > 0.2 µM; IC50 (769-P): > 0.2 µM; IC50 (A-427): 0.183 µM; IC50 (BXPC-3): > 0.2 µM; IC50 (CAL-33): > 0.2 µM; IC50 (CFPAC-1): > 0.2 µM; IC50 (COLO-678): > 0.2 µM; IC50 (COLO-679): > 0.2 µM |
| CS(=O)(=O)c1ccc(C(=O)Nc2ccc(Cl)c(-c3ccccn3)c2)c(Cl)c1 [VISMODEGIB] | > 10 | > 10 | > 10 | > 10 | > 10 | > 10 | > 10 | > 10 | > 10 | > 10 | > 10 | > 10 | > 10 | > 10 | > 10 | > 10 | > 10 | > 10 | > 10 | > 10 | IC50 (SW-620): > 10 µM; IC50 (SW837): > 10 µM; IC50 (CWR22R): > 10 µM; IC50 (769-P): > 10 µM; IC50 (A-427): > 10 µM; IC50 (BXPC-3): > 10 µM; IC50 (CAL-33): > 10 µM; IC50 (CFPAC-1): > 10 µM; IC50 (COLO-678): > 10 µM; IC50 (COLO-679): > 10 µM |
